Measurements from patent US20110059186A1, “CANCER STEM CELL-TARGETED AND DRUG RESISTANT CANCER THERAPY” (KOMINOX USA, INC., priority 2009, published 2011).
Like-named read-outs stand apart in the source and are kept apart here.

Tests used:
Assay type in all cases: cell-based, human
[1] = system: DU145/Pac200 cancer stem cell population; settings: read-out: IC50, colony forming capability
[2] = system: side population of DU145/Pac200 cells
LAPC-4/CSS100 cells = settings: read-out: IC50 KML001
DU145 wt cells = assay: MTT proliferation assay, DU145 wt
Experimental: (§1) Cell Lines: DU145 wt, DU145/Pac200 and DU145/Doc50 cells were provided by Dr. Hussain, UMGCC, University of Maryland. The cell lines were cultured as recommended; in 1:1 DMEM/F12 media (Invitrogen) supplemented with 5% FBS, 1% antibiotics and grown under standard conditions at 37° C. and 5% CO2. Paclitaxel and docetaxel resistant clones were kept under selection pressure of the drugs.
(§2) MTT Proliferation Assay: Exponentially growing cells were harvested and plated in 96-well plates (1,500/well for DU145 wt, and 2,000-3,000/well for DU145/Pac200 and DU145/Doc50). Drugs being tested were added at concentrations ranging from 0.01 μM to 100 μM to asses their growth inhibitory potential. After 5 days of continuous exposure to drug, the vital dye 3-(4,5-dimethylthiazol-2-yl)-2,5-diphenyltetrazoliumbromide (MTT) was added to the plates. The conversion of MTT to purple formazan by viable cells was measured using a Synergy2 plate reader at 550 nm and Gen5 software. Growth curves were generated using Microsoft Excel and growth inhibitory concentration 50 (IC50) and 100% were determined.

LnCaP/C81 cells = settings: read-out: IC50 KML001
[3] = system: DU145/Pac200 (paclitaxel resistant) cells; assay: MTT proliferation assay, DU145/Pac200
Experimental: as §1, §2

LnCaP cells = settings: read-out: IC50 KML001
[4] = system: prostate cancer cell lines (taxane-resistant, androgen resistant and parental); assay: MTT assay across the panel of prostate cancer cell lines
Experimental: as §2
Taxane resistant cell lines DU145/Pac200 (highly pacitaxel resistant) and DU145/Doc50 (highly docetaxel resistant) together with the parental cell line DU145 as well as the androgen resistant cancer cell lines (LNCaP/C81 and LAPC-4/CSS100) and their corresponding hormone responsive parental cell lines (LNCaP and LAPC-4) were tested for their response to sodium meta arsenite.
The cancer cell lines that were resistant to paclixel and docetaxel were tested using a well-established tumor clonigenic stem cell assay for their response to KML001. (FIG. 6) The assay allows only the cancer stem cell population to grow in a soft agar matrix owing to their self-renewal capability. […]

[5] = system: side population of DU145 cells
LAPC-4 cells = settings: read-out: IC50 KML001
hTERT transcript = system: hTERT transcript
[6] = system: DU145 cancer stem cell population; settings: read-out: IC50, colony forming capability
[7] = system: Pgp positive cell population of taxane-resistant prostate cancer cell lines; assay: Pgp surface expression by flow cytometry; settings: treatment at IC50 for 72 hours
Experimental: (§3) Flow Cytometry: Samples were read on a BDLSR II flow cytometer. A 405 nM violet laser excited the DCV dye producing varying wavelengths based on cell differentiation. Detectors at 450/50 (blue) and 680/30 (red) intercepted the emitted wavelength and plotted the data on the scatter plot accordingly. CD44 and Pgp staining was performed using PE (Pgp) or APC (CD44) labeled antibodies and their isotype controls following routine procedures for epitope labeling.
The drug efflux pump (Pgp) is functionally expressed (at the membrane) in the majority of cells in the taxane-resistant prostate cancer cell lines, which is expected since the SP of those cell lines was suppressible with the drug efflux pump inhibitor verapamil. Treatment with KML001 at IC50 for 72 hours reduced the Pgp positive cell population, which corroborates the results of the clonogenic and SP assay.

[8] = system: DU145/Doc50 (docetaxel resistant) cells; assay: MTT proliferation assay, DU145/Doc50
Experimental: as §1, §2

[9] = system: side population of LnCaP/C81 cells
Experimental: (§4) Three samples were analyzed each time. Of the samples one was treated with DCV only, another was treated with DCV and 50 μM Verapamil (PgP inhibitor), and the last was treated with DCV and 10 μM Fumitremorgin C (FTC, BCRP inhibitor). The samples were then read and analyzed using flow cytometry.
as §3, with “A 405 nM violet laser excited the DCV dye producing varying wavelengths based on cell differentiation.” left out
(§5) Each of the prostate cell lines was analyzed for the existence of a cancer stem-like cell fraction using DCV side population analysis. […] The occurrence of a SP is based on the expression of drug efflux pumps such as P-glycoprotein or BCRP, which are responsible for preventing standard cytotoxic therapy from working. […] Because the hormone therapies, e.g., androgen synthesis inhibitors, are not substrates of drug efflux pumps, these findings are not surprising.

[10] = system: side population of DU145/Doc50 cells
Experimental: as §4
as §3, with “A 405 nM violet laser excited the DCV dye producing varying wavelengths based on cell differentiation.” left out
as §5

[11] = system: side population of LnCaP cells
Experimental: as §4
as §3, with “A 405 nM violet laser excited the DCV dye producing varying wavelengths based on cell differentiation.” left out
as §5

[12] = system: side population of LAPC-4 cells
Experimental: as §4
as §3, with “A 405 nM violet laser excited the DCV dye producing varying wavelengths based on cell differentiation.” left out
as §5

[13] = system: side population of LAPC-4/CSS100 cells
Experimental: as §4
as §3, with “A 405 nM violet laser excited the DCV dye producing varying wavelengths based on cell differentiation.” left out
as §5

[14] = DU145/Pac200 relative to DU145 wt
[15] = Du145 Doc50 relative to DU145 wt

O=[As][O-].[Na+] [KML001, sodium meta arsenite]
IC50 [1]: 6000 nM | effect on mature (non-SP) cells after pretreatment [2]: also eradicated | effect on side population (SP) after pretreatment [2]: drastically reducing the SP | IC50 (LAPC-4/CSS100 cells): 3000 nM | IC100 concentration (DU145 wt cells): 13 µM | growth inhibition (DU145 wt cells): marked inhibition of growth | IC50 (DU145 wt cells; read-out: IC50 KML001): 4000 nM | IC50 (LnCaP/C81 cells): 1000 nM | growth inhibition ([3]; DU145/Pac200, MTT): marked inhibition of growth | IC50 ([3]; DU145/Pac200, MTT, 5 days continuous exposure, read-out: IC50 KML001): 6000 nM | IC50 (LnCaP cells): 4000 nM | sensitivity of resistant versus parental cell lines ([4]; growth curves from standard MTT assays): equally effective | IC50 ([4]; taxane-resistant, androgen resistant and hormone responsive parental lines, read-out: IC50's across all prostate cancer cell lines): 1000 to 6000 nM | effect on mature (non-SP) cells after pretreatment [5]: also eradicated | effect on side population (SP) after pretreatment [5]: drastically reducing the SP | IC50 (LAPC-4 cells): 4000 nM | hTERT transcript level (hTERT transcript): significantly decreases | IC50 [6]: 6000 nM | Pgp positive cell population [7]: reduced | growth inhibition ([8]; DU145/Doc50, MTT): marked inhibition of growth | IC50 ([8]; DU145/Doc50, MTT, 5 days continuous exposure, read-out: IC50 KML001): 5000 nM

CC(=O)O[C@H]1C(=O)[C@@]2(C)[C@H]([C@H](OC(=O)c3ccccc3)[C@]3(O)C[C@H](OC(=O)[C@H](O)[C@@H](NC(=O)c4ccccc4)c4ccccc4)C(C)=C1C3(C)C)[C@]1(OC(C)=O)CO[C@@H]1C[C@@H]2O [Paclitaxel]
Paclitaxel Resistance (fold) (DU145 wt cells; DU145 wt (reference line)): 1 fold | IC50 (DU145 wt cells; Homo sapiens, DU-145, DU145 wt, read-out: Paclitaxel IC50): 2.5 nM | Paclitaxel Resistance (fold) [3, 14]: 140 fold | IC50 ([3]; Homo sapiens, DU-145, DU145/Pac200, read-out: Paclitaxel IC50): 350 nM | Paclitaxel Resistance (fold) [8, 15]: 400 fold | IC50 ([8]; Homo sapiens, DU-145, Du145 Doc50, read-out: Paclitaxel IC50): 1000 nM

COc1ccc(CCN(C)CCCC(C#N)(c2ccc(OC)c(OC)c2)C(C)C)cc1OC (stereo not shown) [Verapamil]
SP % with Verapamil [2]: 0.07% | SP % with Verapamil ([5]; DU145, DCV with 50 μM Verapamil, SP 1.04 % without inhibitor): 0.16% | SP % with Verapamil [9]: 0.07% | SP % with Verapamil [10]: 1.35% | SP % with Verapamil [11]: 0.12% | SP % with Verapamil [12]: 1.63% | SP % with Verapamil [13]: 0.19%

COc1ccc2c3c([nH]c2c1)[C@H](C=C(C)C)N1C(=O)[C@@H]2CCCN2C(=O)[C@@H]1C3 [FTC, Fumitremorgin C]
SP % with FTC ([2]; DU145/Pac200, DCV with 10 μM FTC, SP 55 % without inhibitor): 56.5% | inhibition of SP by efflux pump inhibitor ([2]; Pac resistant DU145 cells): not | SP % with FTC ([5]; DU145, DCV with 10 μM FTC, SP 1.04 % without inhibitor): 0.06% | suppression of SP by efflux pump inhibitor ([9]; LnCaP/C81): suppressible | SP % with FTC ([9]; LnCaP/C81, DCV with 10 μM FTC, SP 0.16 % without inhibitor): 0.11% | SP % with FTC ([10]; DU145/Doc50, DCV with 10 μM FTC, SP 40.3 % without inhibitor): 18.35% | inhibition of SP by efflux pump inhibitor ([10]; Doc resistant DU145 cells): not | suppression of SP by efflux pump inhibitor ([11]; LnCaP parental line): suppressible | SP % with FTC ([11]; LnCaP, DCV with 10 μM FTC, SP 0.66 % without inhibitor): 0.04% | suppression of SP by efflux pump inhibitor ([12]; LAPC-4): suppressible | SP % with FTC ([12]; LAPC-4, DCV with 10 μM FTC, SP 1.54 % without inhibitor): 2.24% | SP % with FTC ([13]; LAPC-4/CSS100, DCV with 10 μM FTC, SP 0.36 % without inhibitor): 0.30% | suppression of SP by efflux pump inhibitor ([13]; hormone resistant derivative of LAPC-4): suppressible

CC(=O)O[C@@]12CO[C@@H]1C[C@H](O)[C@@]1(C)C(=O)[C@H](O)C3=C(C)[C@@H](OC(=O)[C@H](O)[C@@H](NC(=O)OC(C)(C)C)c4ccccc4)C[C@@](O)([C@@H](OC(=O)c4ccccc4)[C@H]21)C3(C)C [Docetaxel]
Docetaxel Resistance (fold) (DU145 wt cells; DU145 wt (reference line)): 1 fold | IC50 (DU145 wt cells; Homo sapiens, DU-145, DU145 wt, read-out: Docetaxel IC50): 0.5 nM | Docetaxel Resistance (fold) [3, 14]: 400 fold | IC50 ([3]; Homo sapiens, DU-145, DU145/Pac200, read-out: Docetaxel IC50): 200 nM | Docetaxel Resistance (fold) [8, 15]: 2000 fold | IC50 ([8]; Homo sapiens, DU-145, Du145 Doc50, read-out: Docetaxel IC50): 1000 nM

N.N.[Cl][Pt][Cl] [cisplatin]
IC50 (DU145 wt cells; DU145 parental, standard MTT, read-out: IC50 of cisplatin): 4000 nM | IC50 ([3]; DU145/Pac200, standard MTT, read-out: IC50 of cisplatin): 3000 nM
